Experimental data reported in PubChem BioAssay AID330 (DTP/NCI, 2004).
Values joined by “and” are separate entries in the source; they are usually repeats but may differ in a detail not shown here. Equal values may be shown once. Toxic doses and inconclusive results are not listed. Square brackets hold non-standard residues; d marks the D form. Peptide text beside a SMILES is read from it. ξ: configuration not given here. ξY = NC(Cc1ccc(O)cc1)C(=O)O

System: P388 leukemia ip, CD2F1 mice, survival T/C
Assay: NCI In Vivo Anticancer Drug Screen. Data for tumor model P388 Leukemia (intraperitoneal) in CD2F1 (CDF1) mice
Conditions: endpoint: median survival time, higher = longer survival
How it was run: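 Mice carrying the transplanted tumor received test compound or vehicle. Survival was recorded in each group, and the value is the treated-group measurement divided by that of the vehicle-treated control group.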

[1] = dose: 50.0 mg/kg/injection, schedule: Q01DX009 (ip), vehicle: Klucel (hydroxypropylcellulose) (HPC)
[2] = dose: 100.0 mg/kg/injection, schedule: Q01DX009 (ip), vehicle: Klucel (hydroxypropylcellulose) (HPC)
[3] = dose: 200.0 mg/kg/injection, schedule: Q01DX009 (ip), vehicle: Klucel (hydroxypropylcellulose) (HPC)
[4] = dose: 25.0 mg/kg/injection, schedule: Q01DX009 (ip), vehicle: Klucel (hydroxypropylcellulose) (HPC)
[5] = dose: 60.0 mg/kg/injection, schedule: Q01DX005 (ip), vehicle: saline with Tween-80
[6] = dose: 120.0 mg/kg/injection, schedule: Q01DX005 (ip), vehicle: saline with Tween-80
[7] = dose: 240.0 mg/kg/injection, schedule: Q01DX005 (ip), vehicle: saline with Tween-80
[8] = dose: 50.0 mg/kg/injection, schedule: Q01DX005 (ip), vehicle: Klucel (hydroxypropylcellulose) (HPC)
[9] = dose: 12.5 mg/kg/injection, schedule: Q01DX009 (ip), vehicle: saline with Tween-80
[10] = dose: 25.0 mg/kg/injection, schedule: Q01DX009 (ip), vehicle: saline with Tween-80
[11] = dose: 50.0 mg/kg/injection, schedule: Q01DX001 (ip), vehicle: Klucel (hydroxypropylcellulose) (HPC)
[12] = dose: 100.0 mg/kg/injection, schedule: Q01DX001 (ip), vehicle: Klucel (hydroxypropylcellulose) (HPC)

COc1cccc2c1C(=O)c1c(O)c3c(c(O)c1C2=O)C[C@@](O)(/C(C)=N/NC(=O)c1ccc(O)cc1)C[C@@H]3OC1CC(N)C(O)C(C)O1 (stereo not given in full)
T/C (dose: 0.12 mg/kg/injection, schedule: Q01DX009 (ip), vehicle: water): 115 % of control
T/C (dose: 0.25 mg/kg/injection, schedule: Q01DX009 (ip), vehicle: water): 111 % of control
T/C (dose: 0.5 mg/kg/injection, schedule: Q01DX009 (ip), vehicle: water): 152 % of control and 157 % of control
T/C (dose: 1.0 mg/kg/injection, schedule: Q01DX009 (ip), vehicle: water): 160 % of control
T/C (dose: 2.0 mg/kg/injection, schedule: Q01DX009 (ip), vehicle: water): 160 % of control and 180 % of control
T/C (dose: 4.0 mg/kg/injection, schedule: Q01DX009 (ip), vehicle: water): 161 % of control and 171 % of control
T/C (dose: 10.0 mg/kg/injection, schedule: Q01DX001 (ip), vehicle: water): 174 % of control
T/C (dose: 16.0 mg/kg/injection, schedule: Q01DX009 (ip), vehicle: water): 111 % of control
T/C (dose: 20.0 mg/kg/injection, schedule: Q01DX001 (ip), vehicle: water): 117 % of control

[O-]/[N+](=C\c1ccc(Cl)cc1Cl)c1ccccc1
T/C [1]: 96 % of control
T/C [2]: 100 % of control
T/C [3]: 100 % of control

CCC(C)C(=O)OC1CC2(C)C(c3ccoc3)OC(=O)CC23OC2(C)OC34C(OC(=O)C(C)C)C3(O)C(OC(=O)C5(C)OC5C)C5(C)CC3(O)C(C)(C5CC(=O)OC)C14O2 (stereo not given)
T/C [4]: 93 % of control
T/C [1]: 104 % of control
T/C [2]: 102 % of control
T/C [3]: 99 % of control

N#Cc1ccccc1NC(=O)Nc1ccc(Cl)cc1Cl
T/C (dose: 0.46 mg/kg/injection, schedule: Q01DX005 (ip), vehicle: saline with Tween-80): 94 % of control
T/C (dose: 0.93 mg/kg/injection, schedule: Q01DX005 (ip), vehicle: saline with Tween-80): 97 % of control
T/C (dose: 1.87 mg/kg/injection, schedule: Q01DX005 (ip), vehicle: saline with Tween-80): 99 % of control
T/C [5]: 91 % of control and 92 % of control
T/C [6]: 88 % of control
T/C [7]: 98 % of control

NCC(=O)NC(Cc1ccc(O)cc1)C(=O)O (stereo not given) (H-Gly-[ξY]-OH)
T/C (dose: 100.0 mg/kg/injection, schedule: Q01DX009 (ip), vehicle: saline): 113 % of control
T/C (dose: 100.0 mg/kg/injection, schedule: Q04DX003 (ip), vehicle: saline): 98 % of control
T/C (dose: 200.0 mg/kg/injection, schedule: Q01DX009 (ip), vehicle: saline): 101 % of control
T/C (dose: 200.0 mg/kg/injection, schedule: Q04DX003 (ip), vehicle: saline): 105 % of control
T/C (dose: 400.0 mg/kg/injection, schedule: Q01DX009 (ip), vehicle: saline): 105 % of control
T/C (dose: 400.0 mg/kg/injection, schedule: Q04DX003 (ip), vehicle: saline): 104 % of control

O=S(=O)(CCCl)c1ccc2ccccc2c1
T/C (dose: 12.5 mg/kg/injection, schedule: Q01DX009 (ip), vehicle: Klucel (hydroxypropylcellulose) (HPC)): 118 % of control and 90 % of control
T/C [4]: 114 % of control
T/C [1]: 106 % of control and 117 % of control

O=[N+]([O-])c1ccc2c(c1)C(N1CCOCC1)c1ccccc1-2 (stereo not given)
T/C [8]: 98 % of control
T/C (dose: 100.0 mg/kg/injection, schedule: Q01DX005 (ip), vehicle: Klucel (hydroxypropylcellulose) (HPC)): 98 % of control
T/C (dose: 200.0 mg/kg/injection, schedule: Q01DX005 (ip), vehicle: Klucel (hydroxypropylcellulose) (HPC)): 100 % of control

Cc1cc(-c2ccc(N=Nc3c(C)nn(-c4ccc(S(=O)(=O)O)cc4)c3O)c(C)c2)ccc1N=Nc1ccc(O)c(C(=O)O)c1
T/C (dose: 6.25 mg/kg/injection, schedule: Q01DX009 (ip), vehicle: saline with Tween-80): 100 % of control
T/C [9]: 101 % of control
T/C [10]: 93 % of control

NNC(=O)N/N=C/c1ccccc1Cl
T/C (dose: 25.0 mg/kg/injection, schedule: Q01DX005 (ip), vehicle: Klucel (hydroxypropylcellulose) (HPC)): 96 % of control
T/C [8]: 112 % of control

O=C1c2ccccc2C(=O)c2c1cc1c(c2O)OCO1
T/C [5]: 86 % of control
T/C [6]: 89 % of control
T/C [7]: 91 % of control

CCN(CC)CCNc1ccc(C)c2sc3ccc(N)cc3c(=O)c12
T/C [9]: 120 % of control
T/C [10]: 103 % of control
T/C (dose: 50.0 mg/kg/injection, schedule: Q01DX009 (ip), vehicle: saline with Tween-80): 124 % of control
T/C (dose: 100.0 mg/kg/injection, schedule: Q01DX009 (ip), vehicle: saline with Tween-80): 118 % of control

CCCCCCCC(=O)NC1CC(O[C@H]2C[C@](O)(C(C)=O)Cc3c(O)c4c(c(O)c32)C(=O)c2c(OC)cccc2C4=O)OC(C)C1O (stereo not given in full)
T/C (dose: 0.75 mg/kg/injection, schedule: Q01DX009 (ip), vehicle: other): 113 % of control
T/C (dose: 2.0 mg/kg/injection, schedule: Q04DX003 (ip), vehicle: other): 107 % of control
T/C (dose: 4.0 mg/kg/injection, schedule: Q04DX003 (ip), vehicle: other): 98 % of control
T/C (dose: 8.0 mg/kg/injection, schedule: Q04DX003 (ip), vehicle: other): 102 % of control
T/C (dose: 16.0 mg/kg/injection, schedule: Q04DX003 (ip), vehicle: other): 105 % of control
T/C (dose: 32.0 mg/kg/injection, schedule: Q04DX003 (ip), vehicle: other): 116 % of control and 96 % of control
T/C (dose: 50.0 mg/kg/injection, schedule: Q04DX003 (ip), vehicle: other): 118 % of control
T/C (dose: 64.0 mg/kg/injection, schedule: Q04DX003 (ip), vehicle: other): 114 % of control
T/C (dose: 100.0 mg/kg/injection, schedule: Q04DX003 (ip), vehicle: other): 105 % of control
T/C (dose: 128.0 mg/kg/injection, schedule: Q04DX003 (ip), vehicle: other): 123 % of control
T/C (dose: 256.0 mg/kg/injection, schedule: Q04DX003 (ip), vehicle: other): 123 % of control
T/C (dose: 400.0 mg/kg/injection, schedule: Q04DX003 (ip), vehicle: other): 115 % of control

CC1=CS(=O)c2ccccc2N1C (stereo not given)
T/C (dose: 50.0 mg/kg/injection, schedule: Q04DX002 (ip), vehicle: Klucel (hydroxypropylcellulose) (HPC)): 97 % of control
T/C (dose: 100.0 mg/kg/injection, schedule: Q04DX002 (ip), vehicle: Klucel (hydroxypropylcellulose) (HPC)): 100 % of control
T/C (dose: 100.0 mg/kg/injection, schedule: Q04DX002 (ip), vehicle: suspension in saline): 109 % of control
T/C (dose: 200.0 mg/kg/injection, schedule: Q04DX002 (ip), vehicle: Klucel (hydroxypropylcellulose) (HPC)): 101 % of control
T/C (dose: 200.0 mg/kg/injection, schedule: Q04DX002 (ip), vehicle: suspension in saline): 124 % of control
T/C (dose: 400.0 mg/kg/injection, schedule: Q04DX002 (ip), vehicle: Klucel (hydroxypropylcellulose) (HPC)): 108 % of control
T/C (dose: 400.0 mg/kg/injection, schedule: Q04DX002 (ip), vehicle: suspension in saline): 117 % of control

COC(=O)[C@@]12OC[C@]34[C@H]([C@@H](O)[C@@H]1O)[C@@]1(C)CC(=O)C(O)=C(C)[C@@H]1C[C@H]3OC(=O)[C@H](OC(=O)CC(C)C)[C@@H]24
T/C (dose: 0.12 mg/kg/injection, schedule: Q01DX009 (ip), vehicle: saline + alcohol): 110 % of control
T/C (dose: 0.25 mg/kg/injection, schedule: Q01DX009 (ip), vehicle: saline + alcohol): 118 % of control

O=C(CCl)Nc1ccc2c(c1)C(=O)c1cccn1-2
T/C (dose: 25.0 mg/kg/injection, schedule: Q01DX001 (ip), vehicle: Klucel (hydroxypropylcellulose) (HPC)): 97 % of control
T/C (dose: 25.0 mg/kg/injection, schedule: Q04DX003 (ip), vehicle: Klucel (hydroxypropylcellulose) (HPC)): 92 % of control
T/C [11]: 97 % of control
T/C (dose: 50.0 mg/kg/injection, schedule: Q04DX003 (ip), vehicle: Klucel (hydroxypropylcellulose) (HPC)): 97 % of control
T/C [12]: 96 % of control
T/C (dose: 100.0 mg/kg/injection, schedule: Q04DX003 (ip), vehicle: Klucel (hydroxypropylcellulose) (HPC)): 107 % of control

O.O.O=C(O)C(=O)O.O=C(O)C(=O)O.[Rh]
T/C (dose: 25.0 mg/kg/injection, schedule: Q04DX003 (ip), vehicle: water): 94 % of control
T/C (dose: 50.0 mg/kg/injection, schedule: Q04DX003 (ip), vehicle: water): 95 % of control
T/C (dose: 100.0 mg/kg/injection, schedule: Q04DX003 (ip), vehicle: water): 100 % of control
T/C (dose: 200.0 mg/kg/injection, schedule: Q04DX003 (ip), vehicle: water): 100 % of control

COc1cc2c(cc1OC)CN1CCc3ccsc3C1C2 (stereo not given)
T/C [11]: 104 % of control
T/C [12]: 101 % of control
T/C (dose: 200.0 mg/kg/injection, schedule: Q01DX001 (ip), vehicle: Klucel (hydroxypropylcellulose) (HPC)): 97 % of control
